Numbered stars: 1 amine (or outer) side, 2 acyl side, 3 side chain; on linkers, the order of the positions; unused ones are H or OH. Bridge positions count the residues as written; N and C are the ends. Peptide text beside a SMILES is read from it. I, II: the chains in the order shown. Rhodamine110 = O=C1OC2(c3ccc(N[*:1])cc3Oc3cc(N[*:2])ccc32)c2ccccc21
How the values were obtained:
Format in all cases: cell-based, human
granulocytes [1] = experiment: aberrant enzyme activities in febrile children, granulocytes (Table 7)
lymphocytes [2] = experiment: enzyme activity with fluorogenic substrate, normal lymphocytes (Table 3A)
monocytes [3] = experiment: aberrant enzyme activities in febrile children, monocytes (Table 7)
lymphocytes [4] = experiment: aberrant enzyme activities in febrile children, lymphocytes (Table 7)
monocytes [5] = experiment: enzyme activity with fluorogenic substrate, normal monocytes (Table 3A)
granulocytes [6] = experiment: enzyme activity with fluorogenic substrate, normal granulocytes (Table 3A)
[7] = tested on: metabolically active whole cell; experiment: substrate panel in normals and HIV + patients, TB infection (Table 4); design: unit not given here
Description: A panel of assay compounds are assembled consisting of Ala-aminopeptidase and Lys-aminopeptidase, Dipeptidyl peptidase IV (Ala-Ala)2 rhodamine 110 and Cathepsin D to indicate possible TB infection in AIDS related cases.
A panel Of enzymatic substrates is performed consisting of Ala-aminopeptidase and Lys-aminopeptidase, Dipeptidyl peptidase IV (Ala-Ala)2 rhodamine 110 and Cathepsin D to indicate possible TB infection in AIDS related cases.

SMILES	aberrant enzyme activity, GRANS (granulocytes [1]; P88 Enteritis)	aberrant enzyme activity, GRANS (granulocytes [1]; P97 Pyelonephritis)	aberrant enzyme activity, GRANS (granulocytes [1]; P102 UTI)	NORMAL LEUKOCYTE ENZYME ACTIVITY LYMPHS Mean (lymphocytes [2])	aberrant enzyme activity, MONOS (monocytes [3]; P88 Enteritis)	aberrant enzyme activity, MONOS (monocytes [3]; P97 Pyelonephritis)	aberrant enzyme activity, LYMPHS (lymphocytes [4]; P88 Enteritis)	aberrant enzyme activity, LYMPHS (lymphocytes [4]; P97 Pyelonephritis)	aberrant enzyme activity, LYMPHS (lymphocytes [4]; P99 Viral Syndrome)	aberrant enzyme activity, LYMPHS (lymphocytes [4]; P102 UTI)	aberrant enzyme activity, GRANS (granulocytes [1]; P89 Viral Stomatitis)	aberrant enzyme activity, GRANS (granulocytes [1]; P92 Adenitis)	aberrant enzyme activity, GRANS (granulocytes [1]; P103 Viral Syndrome)	aberrant enzyme activity, MONOS (monocytes [3]; P89 Viral Stomatitis)	aberrant enzyme activity, MONOS (monocytes [3]; P92 Adenitis)	aberrant enzyme activity, MONOS (monocytes [3]; P103 Viral Syndrome)	aberrant enzyme activity, LYMPHS (lymphocytes [4]; P89 Viral Stomatitis)	aberrant enzyme activity, LYMPHS (lymphocytes [4]; P92 Adenitis)	aberrant enzyme activity, LYMPHS (lymphocytes [4]; P103 Viral Syndrome)	aberrant enzyme activity, GRANS (granulocytes [1]; P95 Viral Syndrome)	also measured
CC(=O)Oc1ccc2c(c1)Oc1cc(OC(C)=O)ccc1C21OC(=O)c2ccccc21 [FDA-NAF, fluorescein diacetate, reference compound]	.smallcircle.	.smallcircle.	.smallcircle.	17.98	.smallcircle.	.smallcircle.	.smallcircle.	.smallcircle.	.smallcircle.	.smallcircle.											
O=C1OC2(c3ccc(OC4O[C@H](CO)[C@H](O)[C@H](O)[C@H]4O)cc3Oc3cc(OC4O[C@H](CO)[C@H](O)[C@H](O)[C@H]4O)ccc32)c2ccccc21 (stereo partly drawn) [GALAC, (D-galactose)2 fluorescein]	.smallcircle.	.smallcircle.		0.38	.smallcircle.	.smallcircle.	.smallcircle.	.smallcircle.			.smallcircle.	.smallcircle.	.smallcircle.	.smallcircle.	.smallcircle.	.smallcircle.	.smallcircle.	.smallcircle.	.smallcircle.		
C[C@H](NC(=O)[C@@H](N)CCCCN)C(=O)Nc1ccc2c(c1)Oc1cc(NC(=O)[C@H](C)NC(=O)[C@@H](N)CCCCN)ccc1C21OC(=O)c2ccccc21 [KA-M, (Lys-Ala)2 Rho 110]	.smallcircle.	.smallcircle.	.smallcircle.	0.55			.smallcircle.	.smallcircle.		.smallcircle.	.smallcircle.	.smallcircle.	.smallcircle.				.smallcircle.	.smallcircle.	.smallcircle.	.smallcircle.	aberrant enzyme activity, GRANS (granulocytes [1]; P96 Viral Syndrome): .smallcircle.; aberrant enzyme activity, GRANS (granulocytes [1]; P99 Viral Syndrome): .smallcircle.; aberrant enzyme activity, MONOS (monocytes [3]; P88 Enteritis, listed as Lys/Ala-M): - (>0.25 Decrease over normal range); aberrant enzyme activity, MONOS (monocytes [3]; P89 Viral Stomatitis, listed as Lys/Ala-M): - (>0.25 Decrease over normal range); aberrant enzyme activity, MONOS (monocytes [3]; P92 Adenitis, listed as Lys/Ala-M): - (>0.25 Decrease over normal range); aberrant enzyme activity, MONOS (monocytes [3]; P95 Viral Syndrome, listed as Lys/Ala-M): - (>0.25 Decrease over normal range); aberrant enzyme activity, MONOS (monocytes [3]; P96 Viral Syndrome, listed as Lys/Ala-M): - (>0.25 Decrease over normal range); aberrant enzyme activity, MONOS (monocytes [3]; P97 Pyelonephritis, listed as Lys/Ala-M): - (>0.25 Decrease over normal range); aberrant enzyme activity, MONOS (monocytes [3]; P99 Viral Syndrome): .smallcircle.; aberrant enzyme activity, MONOS (monocytes [3]; P102 UTI): .smallcircle.; aberrant enzyme activity, MONOS (monocytes [3]; P103 Viral Syndrome, listed as Lys/Ala-M): - (>0.25 Decrease over normal range); aberrant enzyme activity, LYMPHS (lymphocytes [4]; P95 Viral Syndrome): .smallcircle.; aberrant enzyme activity, LYMPHS (lymphocytes [4]; P96 Viral Syndrome): .smallcircle.; aberrant enzyme activity, LYMPHS (lymphocytes [4]; P99 Viral Syndrome, listed as Lys/Ala-M): + (>0.25 Increase over normal range)
N=C(N)NCCC[C@H](N)C(=O)NCC(=O)N[C@@H](CCC(=O)O)C(=O)N[C@@H](CO)C(=O)Nc1ccc2c(c1)Oc1cc(NC(=O)[C@H](CO)NC(=O)[C@H](CCC(=O)O)NC(=O)CNC(=O)[C@@H](N)CCCNC(=N)N)ccc1C21OC(=O)c2ccccc21 (stereo partly drawn) [RGES, (Arg-Gly-Glu-Ser)2 Rho 110] (I: H-RGES / II: H-RGES; linker I:C-II:C via Rhodamine110)	.smallcircle.	.smallcircle.	.smallcircle.		- (>0.25 Decrease over normal range)	.smallcircle.	.smallcircle.	.smallcircle.	.smallcircle.	.smallcircle.	+ (>0.25 Increase over normal range)	+ (>0.25 Increase over normal range)	.smallcircle.	.smallcircle.	+ (>0.25 Increase over normal range)	.smallcircle.	.smallcircle.	.smallcircle.	.smallcircle.	.smallcircle.	aberrant enzyme activity, GRANS (granulocytes [1]; P96 Viral Syndrome): .smallcircle.; aberrant enzyme activity, GRANS (granulocytes [1]; P99 Viral Syndrome): .smallcircle.; aberrant enzyme activity, GRANS (granulocytes [1]; P101 Fever -- Unknown Origin): .smallcircle.; NORMAL LEUKOCYTE ENZYME ACTIVITY MONOS Mean (monocytes [5]): 8.37; aberrant enzyme activity, MONOS (monocytes [3]; P95 Viral Syndrome): .smallcircle.; aberrant enzyme activity, MONOS (monocytes [3]; P96 Viral Syndrome): .smallcircle.; aberrant enzyme activity, MONOS (monocytes [3]; P99 Viral Syndrome): .smallcircle.; aberrant enzyme activity, MONOS (monocytes [3]; P101 Fever -- Unknown Origin): - (>0.25 Decrease over normal range); aberrant enzyme activity, MONOS (monocytes [3]; P102 UTI): .smallcircle.; aberrant enzyme activity, LYMPHS (lymphocytes [4]; P95 Viral Syndrome): .smallcircle.; aberrant enzyme activity, LYMPHS (lymphocytes [4]; P96 Viral Syndrome): + (>0.25 Increase over normal range); aberrant enzyme activity, LYMPHS (lymphocytes [4]; P101 Fever -- Unknown Origin): .smallcircle.; NORMAL LEUKOCYTE ENZYME ACTIVITY GRANS Mean (granulocytes [6]): 3.96
CC(C)[C@H](N)C(=O)N[C@@H](CCCCN)C(=O)Nc1ccc2c(c1)Oc1cc(NC(=O)[C@H](CCCCN)NC(=O)[C@@H](N)C(C)C)ccc1C21OC(=O)c2ccccc21 [VK, (Val-Lys)2 Rho 110]	- (>0.25 Decrease over normal range)	+ (>0.25 Increase over normal range)	.smallcircle.	1.87	- (>0.25 Decrease over normal range)	.smallcircle.	.smallcircle.	.smallcircle.	+ (>0.25 Increase over normal range)	.smallcircle.	- (>0.25 Decrease over normal range)	.smallcircle.	.smallcircle.	- (>0.25 Decrease over normal range)	.smallcircle.	+ (>0.25 Increase over normal range)	.smallcircle.	.smallcircle.	.smallcircle.	- (>0.25 Decrease over normal range)	aberrant enzyme activity, GRANS (granulocytes [1]; P96 Viral Syndrome): .smallcircle.; aberrant enzyme activity, GRANS (granulocytes [1]; P99 Viral Syndrome): + (>0.25 Increase over normal range); aberrant enzyme activity, GRANS (granulocytes [1]; P101 Fever -- Unknown Origin): .smallcircle.; aberrant enzyme activity, MONOS (monocytes [3]; P95 Viral Syndrome): .smallcircle.; aberrant enzyme activity, MONOS (monocytes [3]; P96 Viral Syndrome): .smallcircle.; aberrant enzyme activity, MONOS (monocytes [3]; P99 Viral Syndrome): + (>0.25 Increase over normal range); aberrant enzyme activity, MONOS (monocytes [3]; P101 Fever -- Unknown Origin): .smallcircle.; aberrant enzyme activity, MONOS (monocytes [3]; P102 UTI): - (>0.25 Decrease over normal range); aberrant enzyme activity, LYMPHS (lymphocytes [4]; P95 Viral Syndrome): - (>0.25 Decrease over normal range); aberrant enzyme activity, LYMPHS (lymphocytes [4]; P96 Viral Syndrome): .smallcircle.; aberrant enzyme activity, LYMPHS (lymphocytes [4]; P101 Fever -- Unknown Origin): .smallcircle.; NORMAL LEUKOCYTE ENZYME ACTIVITY GRANS Mean (granulocytes [6]): 5.10; MEAN DELTA FL ([7]; HIV + PATIENTS): 17.7; MEAN DELTA FL ([7]; NORMALS): 22.7

Source: patent publication US5698411A, “Method for determining activity of enzymes in metabolically active whole cells” (priority 1995, dated 1997)
